Several values for one entry are separate records, joined by “and”; a condition that tells them apart may be missing. Identical values can stand only once. Like-named read-outs stand apart in the source and are kept apart here. Bridge positions count the residues as written; N and C are the ends. Square brackets hold non-standard residues; d marks the D form. Peptide text beside a SMILES is read from it. * marks the point of attachment. 5FAM = O=C1OC2(c3ccc(O)cc3Oc3cc(O)ccc32)c2ccc(C(=O)*)cc21; S5 = C=CCCC[C@](C)(N)C(=O)O; Nle = CCCC[C@H](N)C(=O)O; Aib = CC(C)(N)C(=O)O; βAla = NCCC(=O)O
How the values were obtained:
H3N2 Perth/16/2009 [1] = assay: microbe, parasite or virus in culture; type: cell-based, influenza A virus; conditions: read-out: EC50 (μM) H3N2 Perth/16/2009
H1N1 California/07/2009 [2] = assay: microbe, parasite or virus in culture; type: cell-based, influenza A virus
H3N2 Perth/16/2009 [3] = assay: microbe, parasite or virus in culture; type: cell-based, influenza A virus; conditions: read-out: EC50 (μM) H3N2 Perth/16/2009; remark: listed apart in the source
in vitro = conditions: dog
H1N1 California/07/2009 [4] = assay: microbe, parasite or virus in culture; type: cell-based, influenza A virus; conditions: read-out: EC50 (μM) H1N1 California/07/2009
[5] = read-out: EC50 (μM) H1N1 California/07/2009
[6] = CC50 (μM) H1N1 California/07/2009, Cell cytotoxicity (CC), run with H1N1 California/07/2009
[7] = CC50 (μM) H3N2 Perth/16/2009, Cell cytotoxicity (CC), run with H3N2 Perth/16/2009
[8] = CC50, MDCK cells, run with Influenza A H1N1 California/07/2009, Neutral Red
[9] = CC50, MDCK cells, run with Influenza A H1N1 California/07/2009, Visual

SMILES	EC50 (H3N2 Perth/16/2009 [1])	EC50 (H1N1 California/07/2009 [2]; [5])	EC50 (H3N2 Perth/16/2009 [3])	CC50 (in vitro; [6])	CC50 (in vitro; [7])	CC50 (in vitro; [8])	CC50 (in vitro; [9])	EC50 (H1N1 California/07/2009 [4])	EC50 (H1N1 California/07/2009 [2]; read-out: EC50)
CCCC[C@H](NC(C)=O)C(=O)N[C@@H](CC(=O)O)C(=O)N[C@H](C(=O)N[C@@H](CC(N)=O)C(=O)N[C@@]1(C)CCCC=CCCC[C@@](C)(C(=O)N[C@@H](CC(C)C)C(=O)N[C@@H](CCCCN)C(=O)N[C@@H](C)C(=O)NC(C)(C)C(=O)N[C@@H](C)C(=O)N[C@@H](CCC(N)=O)C(N)=O)NC(=O)[C@H](CC(C)C)NC(=O)[C@H](CC(C)C)NC(=O)[C@H]([C@@H](C)O)NC1=O)C(C)C [SP-1] (Ac-[Nle]DVN[S5]TLL[S5]LKA[Aib]AQ-NH2; staple 5-9)	25 to 50 µM	25 to 50 µM	25 to 50 µM	> 100 µM	> 100 µM	> 100 µM	> 100 µM	> 50 µM	
CCCC[C@H](NC(C)=O)C(=O)N[C@@H](CC(=O)O)C(=O)N[C@H](C(=O)N[C@@H](CC(N)=O)C(=O)N[C@@]1(C)CCCC=CCCC[C@@](C)(C(=O)N[C@@H](CC(C)C)C(=O)N[C@@H](CCCCN)C(=O)N[C@H](C(=O)NC(C)(C)C(=O)N[C@@H](C)C(=O)N[C@@H](C)C(N)=O)C(C)C)NC(=O)[C@H](CC(C)C)NC(=O)[C@H](CC(C)C)NC(=O)[C@H]([C@@H](C)O)NC1=O)C(C)C [SP-2] (Ac-[Nle]DVN[S5]TLL[S5]LKV[Aib]AA-NH2; staple 5-9)	25 to 50 µM	> 50 µM	10 to 25 µM	> 100 µM	> 100 µM	> 100 µM	> 100 µM	> 50 µM	51 µM and 32 µM
CCCC[C@H](NC(C)=O)C(=O)N[C@@H](CC(=O)O)C(=O)N[C@H](C(=O)N[C@@H](CC(N)=O)C(=O)N[C@@]1(C)CCCC=CCCC[C@@](C)(C(=O)N[C@@H](CC(C)C)C(=O)N[C@@H](CCCCN)C(=O)N[C@H](C(=O)N2CCC[C@H]2C(=O)NC(C)(C)C(=O)N[C@@H](CCC(N)=O)C(N)=O)C(C)C)NC(=O)[C@H](CC(C)C)NC(=O)[C@H](CC(C)C)NC(=O)[C@H]([C@@H](C)O)NC1=O)C(C)C [SP-3] (Ac-[Nle]DVN[S5]TLL[S5]LKVP[Aib]Q-NH2; staple 5-9)	> 50 µM	> 50 µM	25 to 50 µM	> 100 µM	> 100 µM	> 100 µM	> 100 µM	> 50 µM	> 100 µM and 73 µM
CC(=O)N[C@@H](Cc1ccccc1)C(=O)N[C@@H](CC(=O)O)C(=O)N[C@H](C(=O)N[C@@H](CC(N)=O)C(=O)N[C@@]1(C)CCCC=CCCC[C@@](C)(C(=O)N[C@@H](CC(C)C)C(=O)N[C@@H](CCCCN)C(=O)N[C@H](C(=O)NC(C)(C)C(=O)N[C@@H](C)C(=O)N[C@@H](CCC(N)=O)C(N)=O)C(C)C)NC(=O)[C@H](CC(C)C)NC(=O)[C@H](CC(C)C)NC(=O)[C@H]([C@@H](C)O)NC1=O)C(C)C [SP-4] (Ac-FDVN[S5]TLL[S5]LKV[Aib]AQ-NH2; staple 5-9)	25 to 50 µM	> 50 µM	25 to 50 µM	> 100 µM	> 100 µM	> 100 µM	> 100 µM	> 50 µM	
CCCC[C@H](NC(=O)CCNC(=O)c1ccc2c(c1)C(=O)OC21c2ccc(O)cc2Oc2cc(O)ccc21)C(=O)N[C@@H](CC(=O)O)C(=O)N[C@H](C(=O)N[C@@H](CC(N)=O)C(=O)N[C@@]1(C)CCCC=CCCC[C@@](C)(C(=O)N[C@@H](CC(C)C)C(=O)N[C@@H](C)C(=O)N[C@H](C(=O)NC(C)(C)C(=O)N[C@@H](C)C(=O)N[C@@H](CCC(N)=O)C(N)=O)C(C)C)NC(=O)[C@H](CC(C)C)NC(=O)[C@H](CC(C)C)NC(=O)[C@H]([C@@H](C)O)NC1=O)C(C)C [SP-5] ({5FAM-βAla}-[Nle]DVN[S5]TLL[S5]LAV[Aib]AQ-NH2; staple 5-9)				> 100 µM	> 100 µM	> 100 µM	> 100 µM		

Source: patent US10059741B2 (priority 2015, dated 2018)
